Measured values: US20150258194A1, “MODULATING TRANSENDOTHELIAL MIGRATION AND RECRUITMENT OF GRANULOCYTES BY MODULATING C-MET PATHWAY” (VIB VZW, priority 2012, published 2015)

What was measured:
[1] = system: MET expression in human neutrophils; test: Q-PCR / Western blot of MET expression in human neutrophils; type: cell-based; details: Enbrel
Protocol: Western blot: 2×10^6 bone marrow neutrophils from WT mice were stimulated with TCM, CCM, 100 ng/ml of murine TNF-α (or mock medium 0% FBS or 10% FBS as control) for 20 hours at 37° C. For the co-culture with HUVEC, a monolayer of HUVEC was stimulated for 4 hours with 5 ng/ml IL-1 at 37° C., and washed before neutrophil seeding. After 20 hours of stimulation, neutrophils were collected using Cell Dissociation Buffer, Enzyme Free, PBS-Based (Gibco). Cells were washed in PBS, lysed in 15 μl of a protease inhibitor mixture and incubated for 15 minutes on ice. The stock solution was obtained by dissolving one tablet of Complete Mini protease inhibitor mixture (CI, Roche) in 5 ml of PBS with 2 mM diisopropyl fluorophosphate (DFP; Acros Organics, Morris Plains, N.J.). After addition of an equal amount of 2×SDS sample buffer supplemented with 4% 2-mercaptoethanol, the lysates were boiled for 15 minutes and kept at -80° C. until use. […] Cell lysates were sonicated, cleared and quantified. […] Quantitative RT-PCR: for mRNA analysis, 1×10^5 or 3×10^5 mouse or human neutrophils, respectively, were incubated in normoxic (21% oxygen) or hypoxic condition (1% oxygen) or stimulated with TCM (plus 50 μg/ml Enbrel or human IgG when indicated), CCM, A549-CM, 100 ng/ml of murine or human TNF-α, 50 ng/ml LPS, or mock medium in 96-multiwell for 4 hours at 37° C. […]

[2] = system: Met expression in neutrophils; test: Q-PCR / Western blot of Met expression in mouse neutrophils; type: cell-based
Protocol: Western blot: 2×10^6 bone marrow neutrophils from WT mice were stimulated with TCM, CCM, 100 ng/ml of murine TNF-α (or mock medium 0% FBS or 10% FBS as control) for 20 hours at 37° C. For the co-culture with HUVEC, a monolayer of HUVEC was stimulated for 4 hours with 5 ng/ml IL-1 at 37° C., and washed before neutrophil seeding. After 20 hours of stimulation, neutrophils were collected using Cell Dissociation Buffer, Enzyme Free, PBS-Based (Gibco). Cells were washed in PBS, lysed in 15 μl of a protease inhibitor mixture and incubated for 15 minutes on ice. The stock solution was obtained by dissolving one tablet of Complete Mini protease inhibitor mixture (CI, Roche) in 5 ml of PBS with 2 mM diisopropyl fluorophosphate (DFP; Acros Organics, Morris Plains, N.J.). After addition of an equal amount of 2×SDS sample buffer supplemented with 4% 2-mercaptoethanol, the lysates were boiled for 15 minutes and kept at -80° C. until use. 30×10^6 neutrophils purified from healthy volunteer blood and stimulated with A549-CM, 100 ng/ml of human TNF-α, 50 ng/ml LPS (or mock medium 10% FBS as control) for 20 hours. Cells were incubated with DFP 2.7 mM for 15' at 4° C., collected and washed in PBS, DFP 2.7 mM, CI 1X, and lysed in hot […] buffer (25% SDS 10%, 25% Tris-HCl pH 6.8) at 96° C. for 10'. Cell lysates were sonicated, cleared and quantified. 6× loading buffer was added before loading on the gel. The following antibodies were used: mouse anti-mouse Met (clone 3D4; Invitrogen), mouse anti-mouse β-actin (Santa Cruz), rabbit anti-human Met (clone D1C2-XP; Cell Signaling), HRP-conjugated anti-beta-tubulin (Abcam). Signal was visualized by Enhanced Chemiluminescent Reagents (ECL, Invitrogen) or West Femto by Thermo Scientific according to the manufacturer's instructions. Quantitative RT-PCR: for mRNA analysis, 1×10^5 or 3×10^5 mouse or human neutrophils, respectively, were incubated in normoxic (21% oxygen) or hypoxic condition (1% oxygen) or stimulated with TCM (plus 50 μg/ml Enbrel or human IgG when indicated), CCM, A549-CM, 100 ng/ml of murine or human TNF-α, 50 ng/ml LPS, or mock medium in 96-multiwell for 4 hours at 37° C. 2×10^5 HUVEC were seeded in 24-multiwell coated with 0.1% gelatin and stimulated with 5 ng/ml IL-1 in DMEM 10% FBS for 4 hours at 37° C. Cells were washed in PBS, collected in RLT buffer (QIAGEN®) and kept at -80° C. RNA was extracted with an RNase Micro kit (QIAGEN®) according to manufacturer's instructions. Reverse transcription to cDNA was performed with the SuperScript III Reverse Transcriptase (Invitrogen) according to manufacturer's protocol. […]

Question: For Enbrel [reference compound], which “Met induction in human neutrophils stimulated with A549-CM” value [1] is on record?
Answer: abolishment of Met induction

Question: What about the “Met induction in mouse neutrophils stimulated with TCM” value ([2]; TCM, 50 μg/ml Enbrel) of the same substance?
Answer: abolishment of Met induction

Question: And the “Met induction in neutrophils upon co-culture with activated ECs” value ([2]; mouse neutrophils, HUVEC (IL-1), TNF-a blockade)?
Answer: prevented Met induction
